Reference: PMC6429459, “The HslV Protease from Leishmania major and Its Activation by C-terminal HslU Peptides” (International Journal of Molecular Sciences, 2019)
Entries after “also recorded” stand apart in the source; their conditions may differ. Numbered stars: 1 amine (or outer) side, 2 acyl side, 3 side chain; on linkers, the order of the positions; unused ones are H or OH. * marks the point of attachment. AMC = Cc1cc(=O)oc2cc(N*)ccc12; Suc = O=C(CCC(=O)[*:2])[*:1]

Tests used:
[1] = system: recombinant LmHslV; assay: LmHslV peptidase activation by HslU C-terminal peptides, substrate Z-EVNL-AMC (JMV4482); format: biochemical, Leishmania major; details: for Potency of LmHslV activation relative to LmC12-U2 / LmHslV activation relative to reference peptide 10 (LmC12-U2): LmHslV 75.2 nM, 37 °C, Z-EVNL-AMC 100 μM, Figure 3; for LmHslV activation relative to reference peptide 10 (LmC12-U2): initial velocity normalised to 10 = 100%
Protocol: (§1) Activity assay: The peptidase activity of recombinant LmHslV was assessed by measuring the fluorescence of AMC released after hydrolysis of the fluorogenic substrates Z-GGL-AMC or JMV4482 (Z-EVNL-AMC), 100 µM. LmHslV activation was obtained by addition of activating peptides (see type and concentration in the figure legends). Activity buffer: 25 mM Tris-HCl pH 8.0, 1 mM DTT, 0.5 mM EDTA and 5 mM MgCl2. Most of the experiments were performed in a final volume of 50 µL in black 96-well microplates (Fisher Scientific, Illkirch, France. Fluorescence was measured using a spectrofluorimeter (BIO-TEK Instrument, Inc., Winooski, VT, USA): filters 360/340 for excitation and 460/440 for emission.
Figure 3 Both peptides derived from the C-terminal end of either LmHslU1 or LmHslU2 and analogues from other microorganisms are able to support LmHslV activation. LmHslV (75,2nM) was incubated at 37 °C with the peptide substrate Z-EVNL-AMC (100 μM) in the presence of peptides 8–11 and 1–15 (500 μM). A scrambled version of LmC12-U2 (44) was also included. The fluorescence of the free AMC group, proportional to the activity of the sample, was measured at 2 min. intervals.
Figure 4 Sequence requirements for activation of LmHslV by C-terminal LmHslU2 peptides. (A) Alascan. Percentage of initial velocity relative to compound LmC12-U2. Fluorescence was measured for 30 min incubation at 37 °C of LmHslV (2 μg) with 100 μM JMV4482 (Z-EVNL-AMC) in the presence of 500 μM peptides. (B) D-scan. Percentage of initial velocity relative to compound LmC12-U2. Activity was measured as in (A). (C) Truncated peptides. Percentage of activity relative to compound LmC12-U2, measured as in (A).
Figure 5 Effect of conformational constraints on HslV activation by HslU C-terminal peptides. HslV activity was measured in the presence of various cyclic analogues of LmC12-U2 and LmC9-U2. Values are expressed as percentage of initial velocity relative to compound LmC12-U2.
Figure S3. Effect of LmC12-U2 dimerization. LmHslV has been incubated at 37°C for 30 min with […]
the substrate Z-EVNL-AMC (100µM). The fluorescence generated by the cleavage of the substrate was recorded at 5 min intervals. The dotted line represents the ratio at each time point between the fluorescence values obtained with the two peptides.
(also on this page, place not known: dimerization . ( 12), Di-C12 / C12 Fluorescence (arbitrary unit) Ratio)

[2] = Circular dichroism, α-helix content from θ at 222 nm; format: physicochemical; details: for Helicity%: 25 mM Tris-HCl pH 8.0, 20 °C, 100% helicity for θ = −36,000; for θmre at 222 nm: 25 mM Tris-HCl pH 8.0, around 200 μM peptide, 20 °C, 1 mm cuvette, 3 scans
Protocol: CD spectra (Figure S2) were recorded on a JASCO J-815 spectropolarimeter from 190 to 260 nm (data pitch of 0.1 nm, continuous scanning mode, 200 nm/min, 3 scans) at 20 °C, using a 1 mm path length cuvette. Baseline was corrected by subtracting the background from the sample spectrum.
Peptides were solubilised in 50 mM Tris-HCl, pH 8.0 buffer at an estimated concentration of 400 μM according to their apparent molecular mass (i.e. M + xTFA with x = number of basic groups). The solutions were then diluted twice (25 mM Tris and around 200 μM peptides final concentrations) with: […]

[3] = system: LmHslV; assay: Degradation of fluorogenic substrates by LmC12-U2-activated LmHslV; format: biochemical, Leishmania major; details: LmHslV 75.2 nM, 37 °C, substrate 100 μM, activating peptide LmC12-U2 500 μM; Figure 2; in words
Protocol: as §1
Figure 2 Degradation of different fluorogenic substrates by LmHslV. LmHslV (75.2 nM) was incubated at 37 °C with different fluorogenic substrates (100 μM) in the presence of the activating peptide LmC12-U2 (500 μM). The fluorescence of the free AMC group, proportional to the activity of the sample, was measured at 2 min. intervals. With each substrate, no activity was measured in the absence of activating peptide: for the sake of clarity, only the negative control values obtained with the substrate ZGGL-AMC are shown.

[4] = substrate Z-EVNL-AMC, Figure 5, in words

Substance: H-arg-O2Oc-Leu-Gln-Lys-Asn-Val-Asn-leu-Ala-Lys-Tyr-Leu-Leu-OH [Compound 23]
- LmHslV activation, Ala-scan, D-scan and truncations, relative to LmC12-U2 ([1]; LmHslV 2 μg, 30 min at 37 °C, JMV4482 (Z-EVNL-AMC) 100 μM, peptide 500 μM, Figure 4, in words): no activity

Substance: H-arg-O2Oc-Leu-Gln-Lys-c[Asp-Val-Asn-Leu-Dap]-Lys-Tyr-Leu-Leu-OH (sidechain bridge or staple) [Compound 42]
- LmHslV activation by cyclic analogues relative to reference peptide 10 [1, 4]: almost half as active as the reference peptide

Substance: H-arg-O2Oc-Leu-Gln-Lys-c[Asp-Val-Asn-Leu-Lys]-Lys-Tyr-Leu-Leu-OH (sidechain bridge or staple) [Compound 37]
- LmHslV activation by cyclic analogues relative to reference peptide 10 [1, 4]: the more potent cyclic analogue
- Helicity% ([2]; 0% TFE): 5%
- θmre at 222 nm ([2]; 0% TFE): −1626 deg.cm^2.dmol^−1
- Helicity% ([2]; 25% TFE): 17%
- θmre at 222 nm ([2]; 25% TFE): −6143 deg.cm^2.dmol^−1
- θmre at 222 nm ([2]; 50% TFE): −7628 deg.cm^2.dmol^−1

Substance: H-arg-O2Oc-Leu-Gln-Lys-c[Asp-Val-Asn-Leu-Orn]-Lys-Tyr-Leu-Leu-OH (sidechain bridge or staple) [Compound 41]
- LmHslV activation by cyclic analogues relative to reference peptide 10 [1, 4]: activity decreased

Substance: H-arg-O2Oc-Leu-Gln-Lys-c[Asp-Val-Asn-Leu-lys]-Lys-Tyr-Leu-Leu-OH (sidechain bridge or staple) [Compound 39]
- LmHslV activation by cyclic analogues relative to reference peptide 10 [1, 4]: much more potent than the linear compound 24

Substance: H-arg-O2Oc-Leu-Gln-Lys-c[asp-Val-Asn-Leu-lys]-Lys-Tyr-Leu-Leu-OH (sidechain bridge or staple) [Compound 40]
- Relative potency: percentage of initial velocity relative to LmC12-U2 ([1]; cyclic analogues, substrate Z-EVNL-AMC, Figure 5): 55%

Substance: H-arg-O2Oc-Leu-Met-Asn-Asn-Ile-Asp-Leu-Ala-Lys-Tyr-Ile-Leu-OH [Compound 13]
- Potency of LmHslV activation relative to LmC12-U2 ([1]; peptide 500 μM): twice

Substance: H-arg-O2Oc-Leu-Val-Ala-Asp-Glu-Asp-Leu-Ser-Arg-Phe-Ile-Leu-OH [Compound 15]
- LmHslV activation relative to reference peptide 10 (LmC12-U2) ([1]; peptide 500 μM, in words): as potent as LmC12-U2

Substance: H-arg-O2Oc-Met-Val-Lys-Lys-Val-Asp-Ile-Lys-Lys-Tyr-Ile-Leu-OH [Compound 9]
- LmHslV activation relative to reference peptide 10 (LmC12-U2) ([1]; peptide 500 μM, in words): increase in activity; also recorded: large increase in potency

Substance: H-arg-O2Oc-Phe-Ile-Lys-Gln-Tyr-Asp-Leu-Lys-Lys-Tyr-Ile-Ile-OH [Compound 14]
- Potency of LmHslV activation relative to LmC12-U2 ([1]; peptide 500 μM): 1.5 fold

Substance: H-arg-O2Oc-c[Asp-Val-Asn-Leu-Lys]-Lys-Tyr-Leu-Leu-OH (sidechain bridge or staple) [Compound 43]
- LmHslV activation by cyclic analogues relative to reference peptide 10 [1, 4]: almost as active as the reference peptide 10; also recorded: did not reduce the activity compared to LmC12-U2 (10)
- Helicity% ([2]; 0% TFE): 6%
- θmre at 222 nm ([2]; 0% TFE): −2225 deg.cm^2.dmol^−1
- Helicity% ([2]; 25% TFE): 14%
- θmre at 222 nm ([2]; 25% TFE): −5026 deg.cm^2.dmol^−1
- Helicity% ([2]; 50% TFE): 14%
- θmre at 222 nm ([2]; 50% TFE): −5140 deg.cm^2.dmol^−1

Substance: Suc-LLVY-{AMC}
- Degradation of fluorogenic substrate by activated LmHslV [3]: degraded by peptide-activated LmHslV
